The subject of this assay is neuromuscular transmission. The assay is described as follows: Neuromuscular assay (electromyography after topical application). Format: in vivo, guinea pigs. The settings on record: 18 hours later. The protocol:
To determine the effect of different formulations and dosages of compositions according to the invention, varying amounts of topical TP5 compositions prepared as described in Example 1B, were applied to the skin of guinea pigs.
A 11/2"×11/2" square section was shaved on each animal's back 24 hours before the application of the thymopentin composition. Four concentrations of thymopentin cream were used (10%, 5%, 2.5% and 1.25%) using Unibase® as a diluent. A total of 100 mg of cream containing either 10 mg, 5 mg, 2.5 mg or 1.25 mg thymopentin was rubbed with a spatula on the shaved skin of each animal. Control animals were treated similarly with the Unibase® carrier only.
Eighteen hours later the neuromuscular transmission of each group of five animals for each concentration was assessed by electromyography as described in Lancet, 12:256-259 (1975).

Where no end group is shown, it is not given here.

Turning to RKDVY [thymopentin], the “neuromuscular change compared to control animals” value was “Significant neuromuscular change” (5% thymopentin cream in Unibase, 100 mg cream (5 mg thymopentin) on shaved skin) and “Significant neuromuscular change” (10% thymopentin cream in Unibase, 100 mg cream (10 mg thymopentin) on shaved skin).

Values taken from patent US5036050A, “Compositions containing thymopentin for topical treatment of skin disorders” (Immunobiology Research Institute, Inc., priority 1989, dated 1991).
